Assay results published in PubChem BioAssay (NCI).
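Compound exposure: 48 hours, 5 concentrations, 96-well plates. TGI is the concentration that stops growth completely.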

How the values were obtained:
Experiment in all cases: inhibition of tumour cell growth, NCI panel, 48 h
UACC-62 melanoma = test system: UACC-62 melanoma
786-0 renal = test system: 786-0 renal
OVCAR-4 ovarian = test system: OVCAR-4 ovarian
IGROV1 ovarian = test system: IGROV1 ovarian
DU-145 prostate = test system: DU-145 prostate
UO-31 renal = test system: UO-31 renal
HCT-15 colon = test system: HCT-15 colon
A549 NSCLC = test system: A549 NSCLC
RXF 393 renal = test system: RXF 393 renal
A498 renal = test system: A498 renal
SK-OV-3 ovarian = test system: SK-OV-3 ovarian
CAKI-1 renal = test system: CAKI-1 renal
NCI-H23 lung = test system: NCI-H23 lung
SNB-75 CNS = test system: SNB-75 CNS
ACHN renal = test system: ACHN renal
MDA-MB-435 = test system: MDA-MB-435
OVCAR-3 ovarian = test system: OVCAR-3 ovarian
KM12 colon = test system: KM12 colon
BT-549 breast = test system: BT-549 breast
T-47D breast = test system: T-47D breast
SNB-19 CNS = test system: SNB-19 CNS
NCI/ADR-RES ovarian = test system: NCI/ADR-RES ovarian
HOP-62 NSCLC = test system: HOP-62 NSCLC
OVCAR-5 ovarian = test system: OVCAR-5 ovarian
NCI-H460 lung = test system: NCI-H460 lung
HT29 colon = test system: HT29 colon
TK-10 renal = test system: TK-10 renal
MOLT-4 leukemia = test system: MOLT-4 leukemia
MALME-3M melanoma = test system: MALME-3M melanoma
COLO 205 colon = test system: COLO 205 colon
LOX IMVI melanoma = test system: LOX IMVI melanoma
EKVX NSCLC = test system: EKVX NSCLC
NCI-H522 lung = test system: NCI-H522 lung
UACC-257 melanoma = test system: UACC-257 melanoma
OVCAR-8 ovarian = test system: OVCAR-8 ovarian
RPMI-8226 leukemia = test system: RPMI-8226 leukemia
SF-268 CNS = test system: SF-268 CNS
PC-3 prostate = test system: PC-3 prostate
HOP-92 NSCLC = test system: HOP-92 NSCLC
HS 578T breast = test system: HS 578T breast
SK-MEL-5 melanoma = test system: SK-MEL-5 melanoma
MCF7 breast = test system: MCF7 breast
K-562 leukemia = test system: K-562 leukemia
U251 CNS = test system: U251 CNS
HL-60(TB) leukemia = test system: HL-60(TB) leukemia
HCT-116 colon = test system: HCT-116 colon
SF-539 CNS = test system: SF-539 CNS
SW-620 colon = test system: SW-620 colon
SN12C renal = test system: SN12C renal
CCRF-CEM leukemia = test system: CCRF-CEM leukemia
MDA-MB-231 breast = test system: MDA-MB-231 breast
SF-295 CNS = test system: SF-295 CNS
NCI-H226 lung = test system: NCI-H226 lung
MDA-N = test system: MDA-N
M14 melanoma = test system: M14 melanoma
HCC-2998 colon = test system: HCC-2998 colon
SK-MEL-28 melanoma = test system: SK-MEL-28 melanoma
SK-MEL-2 melanoma = test system: SK-MEL-2 melanoma

## N#Cc1cc(-c2nc3ccc(F)cc3s2)ccc1N
UACC-62 melanoma
  TGI: > 100 µM
786-0 renal
  TGI: > 100 µM
OVCAR-4 ovarian
  TGI: > 100 µM
IGROV1 ovarian
  TGI: > 100 µM
DU-145 prostate
  TGI: > 100 µM
UO-31 renal
  TGI: > 100 µM
HCT-15 colon
  TGI: > 100 µM
A549 NSCLC
  TGI: > 100 µM
RXF 393 renal
  TGI: > 100 µM
A498 renal
  TGI: > 100 µM
SK-OV-3 ovarian
  TGI: 96.6 µM
CAKI-1 renal
  TGI: > 100 µM
NCI-H23 lung
  TGI: > 100 µM
SNB-75 CNS
  TGI: > 100 µM
ACHN renal
  TGI: > 100 µM
MDA-MB-435
  TGI: > 100 µM
OVCAR-3 ovarian
  TGI: > 100 µM
KM12 colon
  TGI: > 100 µM
BT-549 breast
  TGI: > 100 µM
T-47D breast
  TGI: > 100 µM
SNB-19 CNS
  TGI: > 100 µM
NCI/ADR-RES ovarian
  TGI: > 100 µM
HOP-62 NSCLC
  TGI: > 100 µM
OVCAR-5 ovarian
  TGI: > 100 µM
NCI-H460 lung
  TGI: > 100 µM
HT29 colon
  TGI: > 100 µM
TK-10 renal
  TGI: > 100 µM
MOLT-4 leukemia
  TGI: > 100 µM
MALME-3M melanoma
  TGI: > 100 µM
COLO 205 colon
  TGI: > 100 µM
LOX IMVI melanoma
  TGI: > 100 µM
EKVX NSCLC
  TGI: > 100 µM
NCI-H522 lung
  TGI: > 100 µM
UACC-257 melanoma
  TGI: > 100 µM
OVCAR-8 ovarian
  TGI: > 100 µM
RPMI-8226 leukemia
  TGI: > 100 µM
SF-268 CNS
  TGI: > 100 µM
PC-3 prostate
  TGI: > 100 µM
HOP-92 NSCLC
  TGI: > 100 µM
HS 578T breast
  TGI: > 100 µM
SK-MEL-5 melanoma
  TGI: > 100 µM
MCF7 breast
  TGI: > 100 µM
K-562 leukemia
  TGI: > 100 µM
U251 CNS
  TGI: > 100 µM
HL-60(TB) leukemia
  TGI: > 100 µM
HCT-116 colon
  TGI: > 100 µM
SF-539 CNS
  TGI: > 100 µM
SW-620 colon
  TGI: > 100 µM
SN12C renal
  TGI: > 100 µM
CCRF-CEM leukemia
  TGI: > 100 µM
MDA-MB-231 breast
  TGI: > 100 µM
SF-295 CNS
  TGI: > 100 µM
NCI-H226 lung
  TGI: > 100 µM
MDA-N
  TGI: > 100 µM
M14 melanoma
  TGI: > 100 µM

## CCCCCCCCCCCC(=O)c1c(O)cc(C)oc1=O
UACC-62 melanoma
  TGI: > 100 µM
786-0 renal
  TGI: > 100 µM
IGROV1 ovarian
  TGI: > 100 µM
DU-145 prostate
  TGI: > 100 µM
UO-31 renal
  TGI: > 100 µM
HCT-15 colon
  TGI: > 100 µM
A549 NSCLC
  TGI: > 100 µM
A498 renal
  TGI: > 100 µM
SK-OV-3 ovarian
  TGI: > 100 µM
CAKI-1 renal
  TGI: > 100 µM
NCI-H23 lung
  TGI: > 100 µM
SNB-75 CNS
  TGI: > 100 µM
ACHN renal
  TGI: > 100 µM
MDA-MB-435
  TGI: > 100 µM
OVCAR-3 ovarian
  TGI: > 100 µM
KM12 colon
  TGI: > 100 µM
BT-549 breast
  TGI: > 100 µM
T-47D breast
  TGI: > 100 µM
SNB-19 CNS
  TGI: > 100 µM
NCI/ADR-RES ovarian
  TGI: > 100 µM
HCC-2998 colon
  TGI: > 100 µM
HOP-62 NSCLC
  TGI: > 100 µM
OVCAR-5 ovarian
  TGI: > 100 µM
NCI-H460 lung
  TGI: > 100 µM
SK-MEL-28 melanoma
  TGI: > 100 µM
HT29 colon
  TGI: > 100 µM
TK-10 renal
  TGI: > 100 µM
MOLT-4 leukemia
  TGI: > 100 µM
MALME-3M melanoma
  TGI: > 100 µM
COLO 205 colon
  TGI: > 100 µM
LOX IMVI melanoma
  TGI: > 100 µM
EKVX NSCLC
  TGI: > 100 µM
NCI-H522 lung
  TGI: > 100 µM
UACC-257 melanoma
  TGI: > 100 µM
OVCAR-8 ovarian
  TGI: > 100 µM
RPMI-8226 leukemia
  TGI: > 100 µM
SF-268 CNS
  TGI: > 100 µM
PC-3 prostate
  TGI: > 100 µM
HS 578T breast
  TGI: > 100 µM
SK-MEL-5 melanoma
  TGI: 68.6 µM
MCF7 breast
  TGI: > 100 µM
K-562 leukemia
  TGI: > 100 µM
U251 CNS
  TGI: > 100 µM
HL-60(TB) leukemia
  TGI: > 100 µM
HCT-116 colon
  TGI: > 100 µM
SF-539 CNS
  TGI: 93.3 µM
SK-MEL-2 melanoma
  TGI: > 100 µM
SW-620 colon
  TGI: > 100 µM
SN12C renal
  TGI: > 100 µM
CCRF-CEM leukemia
  TGI: > 100 µM
MDA-MB-231 breast
  TGI: > 100 µM
SF-295 CNS
  TGI: > 100 µM
NCI-H226 lung
  TGI: > 100 µM
MDA-N
  TGI: > 100 µM
M14 melanoma
  TGI: > 100 µM

## COc1ccc(-c2nc3ccccc3c(=O)[nH]2)c(OC)c1
UACC-62 melanoma
  TGI: > 100 µM
786-0 renal
  TGI: > 100 µM
OVCAR-4 ovarian
  TGI: > 100 µM
IGROV1 ovarian
  TGI: > 100 µM
DU-145 prostate
  TGI: > 100 µM
UO-31 renal
  TGI: > 100 µM
HCT-15 colon
  TGI: > 100 µM
A549 NSCLC
  TGI: > 100 µM
RXF 393 renal
  TGI: > 100 µM
A498 renal
  TGI: > 100 µM
SK-OV-3 ovarian
  TGI: > 100 µM
CAKI-1 renal
  TGI: > 100 µM
NCI-H23 lung
  TGI: > 100 µM
SNB-75 CNS
  TGI: > 100 µM
ACHN renal
  TGI: > 100 µM
MDA-MB-435
  TGI: > 100 µM
OVCAR-3 ovarian
  TGI: > 100 µM
KM12 colon
  TGI: > 100 µM
BT-549 breast
  TGI: > 100 µM
T-47D breast
  TGI: > 100 µM
SNB-19 CNS
  TGI: > 100 µM
NCI/ADR-RES ovarian
  TGI: > 100 µM
HCC-2998 colon
  TGI: > 100 µM
HOP-62 NSCLC
  TGI: > 100 µM
OVCAR-5 ovarian
  TGI: > 100 µM
NCI-H460 lung
  TGI: > 100 µM
HT29 colon
  TGI: > 100 µM
MOLT-4 leukemia
  TGI: > 100 µM
MALME-3M melanoma
  TGI: > 100 µM
COLO 205 colon
  TGI: > 100 µM
EKVX NSCLC
  TGI: > 100 µM
UACC-257 melanoma
  TGI: > 100 µM
OVCAR-8 ovarian
  TGI: > 100 µM
RPMI-8226 leukemia
  TGI: 83.4 µM
SF-268 CNS
  TGI: > 100 µM
PC-3 prostate
  TGI: > 100 µM
HS 578T breast
  TGI: > 100 µM
SK-MEL-5 melanoma
  TGI: > 100 µM
MCF7 breast
  TGI: > 100 µM
U251 CNS
  TGI: > 100 µM
HCT-116 colon
  TGI: > 100 µM
SK-MEL-2 melanoma
  TGI: > 100 µM
SW-620 colon
  TGI: > 100 µM
SN12C renal
  TGI: > 100 µM
CCRF-CEM leukemia
  TGI: > 100 µM
MDA-MB-231 breast
  TGI: > 100 µM
SF-295 CNS
  TGI: > 100 µM
NCI-H226 lung
  TGI: > 100 µM
MDA-N
  TGI: > 100 µM
M14 melanoma
  TGI: > 100 µM
